The structures appear in SMILES notation.

A short description of this test: Relative specificity for human MAO-A and bovine MAO-B.
`CN1CC=C(Oc2ccc(C(C)(C)C)cc2)CC1` showed a Selectivity of 2.17.

Compound `CN1CC=C(Oc2cccc3ccccc23)CC1` displayed a Selectivity of 2.77.

As for `CN1CC=C(Oc2ccccc2)CC1`, the Selectivity was determined as 0.57.

The compound `CN1CC=C(c2ccccc2)CC1` had a Selectivity of 0.27.

The compound `CN1CC=C(Cc2ccccc2)CC1` registered a Selectivity of 0.11.

Take `CCCCc1ccc(OC2=CCN(C)CC2)cc1`: the Selectivity was 1.54.

In turn, `CN1CC=C(Oc2ccc3ccccc3c2)CC1` gave a Selectivity of 2.21.

For `CN1CC=C(Oc2ccc(Cl)cc2Cl)CC1`, the Selectivity is 2.47.

`CN1CC=C(Cc2cccc3ccccc23)CC1` displayed a Selectivity of 24.7.

With `CN1CC=C(Oc2ccc(-c3ccccc3)cc2)CC1`, the Selectivity amounted to 4.72.

For `CN1CC=C(Cc2ccc3ccccc3c2)CC1`, the Selectivity turned out to be 10.8.

Values taken from ChEMBL document CHEMBL1127689, “Novel 4-(aryloxy)tetrahydropyridine analogs of MPTP as monoamine oxidase A and B substrates” (J Med Chem, 1994).
